Source: patent US8282909B2, “Pharmaceutical composition for topical application of poorly soluble compounds” (Intendis GmbH, priority 2007, dated 2012)

Assay: Solubility of the active substance in solvents and vehicles
Type: physicochemical
Excerpt: Topically administered active substances are mainly used to treat the redness, swelling, itching and discomfort of psoriasis, atopic dermatitis and other pathologies of the skin. […] Glucocorticosteroids, steroids, calcineurin inhibitors, vitamin D analoques, retinoids, immunosuppressants, antimycotics, antiinfectives, estrogens, androgens, fumaric acid esters are typical drug classes for topical administration with such low water solubility. Other examples for such poorly soluble compounds are provided e.g. in WO 03/082827 or WO 2006/050998. One example is the non-steroidal active substance having the chemical name (R)-1,1,1-Trifluoro-4-(5-fluoro-2,3-dihydrobenzofuran-7-yl)-4-methyl-2-{[(2-methyl-5-quinolyl)amino]methyl}pentan-2-ol, the empirical formula of which is C25H26F4N2O2, having a molecular weight of 462.5. This is the compound according to example 1 of WO 2006/050998 (hereinafter Ex1/998).

solubility in ethyl alcohol (ethyl alcohol): moderately soluble
solubility in hexane (hexane): only slightly soluble
solubility in standard cream and ointment vehicles (vehicles for topical administration, such as petrolatum and mineral oils): very poor solubility
solubility in water (water): insoluble
Structure (SMILES): Cc1ccc2c(NC[C@](O)(CC(C)(C)c3cc(F)cc4c3OCC4)C(F)(F)F)cccc2n1 [Ex1/998, (R)-1,1,1-Trifluoro-4-(5-fluoro-2,3-dihydrobenzofuran-7-yl)-4-methyl-2-{[(2-methyl-5-quinolyl)amino]methyl}pentan-2-ol]
